Data on 1 molecule can be found in US10077236B2, “Azacyclic constrained analogs of FTY720” (The Regents of the University of California, priority 2013, dated 2018).

In one data set the test system is SphK1 null MEFs. Nature of the data set: Sensitivity of SphK1 null MEFs. The format is cell-based. How it is done: (§1) The importance of phosphorylation in the activity of compound 6 was then examined. In this study MEF knockout lines that show the same differential sensitivity to compound 6 relative to its enantiomers as leukemia cells were used (FIG. 10h). […] A phosphate and a non-phosphorylatable analog of compound 6 were then tested.

The test system of another data set is SphK2 null MEFs. In words: Sensitivity of SphK2 null MEFs. The format is cell-based. On the procedure: as §1
The test system of data set [1] is patient-derived BCR-Abl+ acute lymphoblastic leukemia cells. Nature of the data set: Viability of patient-derived BCR-Abl+ acute lymphoblastic leukemia cells. The format is cell-based, human. The following applies: 96 h, flow cytometry (vital dye exclusion). On the procedure: Finally, in FIG. 10g dose response curves are provided for studies conducted with patient-derived BCR-Abl+ acute lymphoblastic leukemia cells. Viability was measured at 96 h by flow cytometry (vital dye exclusion).
A general note: A flow cytometer gives signals particle by particle.

Data set [2] has as its system BMp190 cells (murine bone marrow transduced with BCR-Abl p190). In words: Cell viability assay, BCR-Abl p190-expressing murine bone marrow (BM-p190). The format is cell-based. An excerpt:
(§2) Leukemia cell assays: Effects of chemical changes on ability to kill cells as observed in cell viability assays using the BCR-ABL positive human acute lymphoblastic leukemia (ALL) cell line, Sup-B15 are described. Assays using the Sup-B15 cell line were designed to determine efficacy of azacyclic constrained small molecule analogs of FTY720 in killing leukemia cells. Analogs were generated using the synthesis methods mentioned above. Sup-B15 cells were maintained at 2-3 million/mL in RPMI 1640 (by Mediatech™) supplemented with 10% fetal calf serum (by Sigma-Aldrich™), 10 mM Hepes (by Mediatech™), 55 μM β-mercaptoethanol (by Sigma-Aldrich™), 2 mM L-glutamine (by Mediatech™), and antibiotics. BV173, Nalm-6, and Blin-1 were maintained at 1-2 million/mL and CCRF-CEM at less than 500,000/mL in the same medium. BMp190 cells were created by transducing murine bone marrow cells with pMIC-p190 which expresses the p190 isoform of BCR-Abl and human CD4 from an IRES; these cells were kept at 1-2 million/mL in RPMI supplemented as above.
(§3) Flow cytometry: Much of the biological activity presented is shown through flow cytometry data. […] Here, IC50 flow cytometry assays were used. In them, viability was determined at 72 hours by vital dye exclusion [propium iodide or DAPI (4′,6-diamindino-2-phenylindole)]. To measure nutrient receptor expression following exposure to FTY720 and azacyclic constrained analogs of FTY720, surface 4F2hc expression was measured after 3 hours of drug treatment by staining 150,000 cells with phycoerythrin-conjugated mouse anti-human CD98 (by BD Biosciences™). Analysis was restricted to viable cells.
(§4) All samples for the disclosed sets of data were analyzed on a BD LSR II flow cytometer and data analyzed with FlowJo™ software (by Treestar™). IC50's were calculated and statistical tests were performed using GraphPad Prism™.

For a further data set, the system named is Nalm-6 Ph- ALL cell line. In words: Cell viability assay, Nalm-6. The format is cell-based, human. Particulars: 72 h, vital dye exclusion and flow cytometry; read-out: Mean IC50 (+/- SEM) in cell viability assay, Nalm-6 Ph- ALL.
From the text: as §2, §3, §4

Data set [3] has as its system CCRF-CEM Ph- ALL cell line. Nature of the data set: Cell viability assay, CCRF-CEM. Type of data set: cell-based, human. Particulars: 72 h, vital dye exclusion and flow cytometry; read-out: Mean IC50 (+/- SEM) in cell viability assay, CCRF-CEM Ph- ALL.
From the text: as §2, §3, §4

Data set [4] deals with sphingosine-1-phosphate receptors. Nature of the data set: S1P receptor activation in CHO cells expressing the receptors. The format is cell-based. The following applies: added to CHO cells expressing the receptors. How it is done: When the pure phosphates are added to these CHO cells, multiple S1P receptors are activated when the phosphates are present at 1-10 uM. There is no enantiomer-selectivity in the activation of S1P receptors.

For the next data set, the system named is human colon cancer cells. In words: Combination with trametinib in human colon cancer cells. Type of data set: cell-based.
In another data set the target is T1, sphingosine kinase 2 (Mus musculus, UniProt Q9JIA7).
T1 construct: endogenous in cells
T1 sequence (Q9JIA7 1-617): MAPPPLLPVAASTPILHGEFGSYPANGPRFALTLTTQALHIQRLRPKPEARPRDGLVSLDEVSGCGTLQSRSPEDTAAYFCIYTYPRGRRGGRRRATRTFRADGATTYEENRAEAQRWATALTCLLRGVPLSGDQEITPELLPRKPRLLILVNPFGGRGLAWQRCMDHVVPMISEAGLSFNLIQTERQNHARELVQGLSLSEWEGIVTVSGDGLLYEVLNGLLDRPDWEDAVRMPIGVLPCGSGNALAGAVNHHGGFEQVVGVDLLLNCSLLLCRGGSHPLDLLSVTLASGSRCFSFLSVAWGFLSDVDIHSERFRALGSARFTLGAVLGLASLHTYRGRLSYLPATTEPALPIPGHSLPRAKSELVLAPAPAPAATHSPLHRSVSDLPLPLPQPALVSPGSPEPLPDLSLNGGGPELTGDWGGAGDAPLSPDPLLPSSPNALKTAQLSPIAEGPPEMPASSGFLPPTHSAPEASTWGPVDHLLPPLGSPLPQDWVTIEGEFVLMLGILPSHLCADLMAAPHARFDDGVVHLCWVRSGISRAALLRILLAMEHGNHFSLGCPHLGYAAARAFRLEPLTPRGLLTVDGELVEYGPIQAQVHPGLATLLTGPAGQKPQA
Nature of the data set: Phosphorylation by sphingosine kinase 2 in cells. The format is cell-based. How it is done: as §1

Data set [5] has as its system BCR-Abl+ leukemias compared to other cell types. Nature of the data set: Ratio of IC50 of compound 6 (177) and its enantiomer compound 5 (39) across cell types. Type of data set: cell-based. The text has this:
Another difference between compound 6 and FTY720 or the enantiomer of compound 6, is that compound 6 has a specific and very high activity to BCR-Abl+ leukemias compared to other cell types. This trend is shown in FIG. 10d by calculating the ratio of 1050 for compound 6 (also called 177) and its enantiomer compound 5 (also called 39). If the drugs are similarly effective a ratio near 1 would be expected, and if compound 6 works better (has a lower 1050), a ratio greater than one as with SupB15s would be expected. […] Finally, it is seen that the Ph+ALL primary patient sample has a ratio greater than 1.

Data set [6] can be described thus: Mouse heart rate by telemetry. The format is in vivo. The following applies: telemetry for 24 h after administration of anti-cancer dose. The text has this:
As previously discussed, FTY720 itself cannot be used in cancer patients because phosphorylation of FTY720 by SphKs makes FTY720-P, which acts at S1P receptors to cause bradycardia and immunosuppression (on-target effect for primary use).

The structures appear in SMILES notation.

With `CCCCCCCCc1ccc(CO[C@@H]2CN[C@@H](CO)C2)cc1.Cl` [Compound 6], the “differential sensitivity to compound 6 relative to its enantiomers” value with SphK1 null MEFs is on record as “this difference is maintained”. Moreover, the “gain of functional activity” value with SphK2 null MEFs is “no longer shows gain of functional activity”. Also, the “potency in dose response, viability” value in [1] was “more potent than FTY720 and its enantiomer, compound 39”. The IC50 came out at 500 ± 100 nM in [2] (72 h, vital dye exclusion and flow cytometry, read-out: Mean IC50 (+/- SEM) in cell viability assay, BM-p190); 13.5 ± 2.4 µM in the data set with Nalm-6 Ph- ALL cell line; 8.2 ± 0.7 µM in data set [3]. Further, in data set [2] (murine bone marrow transformed by BCR-ABL p190), the “more active than compound 5” value is on record as 10 fold. The “activation of sphingosine-1-phosphate receptors” value in [4] is on record as “do not activate sphingosine-1-phosphate receptors”. Also, the “cell killing, combination of trametinib and compound 6” value in the data set with human colon cancer cells is on record as “can kill human colon cancer cells”. Besides, in the data set with human colon cancer cells, the “cell killing, single agent” value is given as “do not die”. In addition, the “phosphorylation by sphingosine kinase 2 in cells” value at sphingosine kinase 2 is on record as “more efficient”. The “ratio of IC50, compound 6 versus its enantiomer compound 5” value in data set [5] (2 Ph+ ALL lines and BM transduced with BCR-ABL p190 fusion) is reported as “greater than 1”; in [5] (3 Ph- ALL lines) it was approximately 1; in [5] (Ph+ALL primary patient sample) it was “greater than 1”. Also, the “sensitivity of non-sensitive line after p190 transduction” value in data set [5] (CCRF transduced with p190) is given as “becomes sensitized to compound 6”. Moreover, the “effect on heart rate” value in [6] is on record as “nor does it decrease heart rate”.
